In patent publication EP0501870A1, “New pharmaceutical compositions, particularly for the treatment of functional infections of the large intestines, and process for obtaining them” (SOCIETE CIVILE BIOPROJET, priority 1991, dated 1992):

Tests used:
[1] = Multicentre clinical study in functional colopathy patients; format: in vivo
Text: Une étude multicentrique chez 420 colopathes fonctionnels a été entreprise avec l'acétorphan [R,S], produit pour lequel les études de toxicité chronique chez l'animal rongeur (rat) et non rongeur (singe) autorisaient des études de longue durée (supérieure à 1 mois). […]
Le critère principal d'efficacité retenu était la douleur évaluée selon une échelle analogique. Les autres paramètres pris en considération étaient les troubles du transit, qu'il s'agisse de constipation (54,4 % des cas) ou de diarrhée (39 % des cas).

A.C.E. = A.C.E. (Homo sapiens, UniProt P12821); details: cited from earlier work
[2] = biological target: T1, enképhalinase plasmatique (Homo sapiens, UniProt P08473); assay: Plasma enkephalinase activity over time after a single oral dose; format: in vivo, volontaire sain; details: healthy volunteer; for Activité enképhalinase plasmatique T3O' / Activité enképhalinase plasmatique T1h / Activité enképhalinase plasmatique T8h / Activité enképhalinase plasmatique TO: 30 mg oral single dose; for Activité enképhalinase plasmatique T3O': 30 min; for Activité enképhalinase plasmatique T3O' / Activité enképhalinase plasmatique T1h / Activité enképhalinase plasmatique T8h: * p < 0.05 vs TO; for Activité enképhalinase plasmatique T1h: 1 h; for Activité enképhalinase plasmatique T8h: 8 h; for Activité enképhalinase plasmatique TO: time zero (baseline)
T1 construct: from tissue; host or cells: plasma of healthy volunteers
Procedure: Chez le volontaire sain, l'activité enzymatique plasmatique a été évaluée en fonction du temps pour suivre l'absorption et la durée de vie des inhibiteurs étudiés, après administration orale d'un dose unique de 30 mg.
Comparaison des inhibitions enképhalinasiques plasmatiques après administration des différents composés à la dose de 30 mg par voie orale.

motricité colique = assay: Post-prandial colonic motor activity recorded by strain gauges; format: in vivo, chien; details: dog, mean and sd of 8 values
Text: Chez le chien, en période post-prandiale, le mélange des deux isomères [R] 65 % [S]

enképhalinase [3] = details: type of constant (IC50/Ki) not given; read-out: activité inhibitrice de l'enképhalinase; cited from earlier work
enképhalinase [4] = biological target: enképhalinase (Homo sapiens, UniProt P08473); details: compared with isomère [S], cited from earlier work
[5] = clinical trials in man; cited from earlier work
[6] = plasma enkephalinase inhibition, 30 mg oral

T1 sequence (P08473 whole entry): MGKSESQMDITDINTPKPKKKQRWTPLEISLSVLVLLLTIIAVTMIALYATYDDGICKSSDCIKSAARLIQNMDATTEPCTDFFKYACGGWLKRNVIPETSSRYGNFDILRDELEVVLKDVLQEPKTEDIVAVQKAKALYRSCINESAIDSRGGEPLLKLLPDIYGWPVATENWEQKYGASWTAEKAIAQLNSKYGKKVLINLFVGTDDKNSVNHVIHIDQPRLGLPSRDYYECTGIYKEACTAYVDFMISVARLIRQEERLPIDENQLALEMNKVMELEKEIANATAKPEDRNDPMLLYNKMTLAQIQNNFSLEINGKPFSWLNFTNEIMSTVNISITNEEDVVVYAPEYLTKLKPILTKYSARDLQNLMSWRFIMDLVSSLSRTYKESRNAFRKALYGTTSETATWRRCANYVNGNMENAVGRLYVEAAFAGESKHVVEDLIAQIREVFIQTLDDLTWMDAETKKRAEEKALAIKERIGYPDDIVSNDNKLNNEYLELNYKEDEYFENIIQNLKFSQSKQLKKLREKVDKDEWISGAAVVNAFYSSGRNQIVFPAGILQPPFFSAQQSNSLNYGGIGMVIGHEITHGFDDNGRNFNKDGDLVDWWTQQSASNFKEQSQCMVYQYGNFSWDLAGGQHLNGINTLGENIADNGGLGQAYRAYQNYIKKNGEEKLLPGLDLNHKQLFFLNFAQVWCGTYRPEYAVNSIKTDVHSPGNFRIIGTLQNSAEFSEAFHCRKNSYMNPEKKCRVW
A.C.E., sequence (P12821 30-1306, species assumed): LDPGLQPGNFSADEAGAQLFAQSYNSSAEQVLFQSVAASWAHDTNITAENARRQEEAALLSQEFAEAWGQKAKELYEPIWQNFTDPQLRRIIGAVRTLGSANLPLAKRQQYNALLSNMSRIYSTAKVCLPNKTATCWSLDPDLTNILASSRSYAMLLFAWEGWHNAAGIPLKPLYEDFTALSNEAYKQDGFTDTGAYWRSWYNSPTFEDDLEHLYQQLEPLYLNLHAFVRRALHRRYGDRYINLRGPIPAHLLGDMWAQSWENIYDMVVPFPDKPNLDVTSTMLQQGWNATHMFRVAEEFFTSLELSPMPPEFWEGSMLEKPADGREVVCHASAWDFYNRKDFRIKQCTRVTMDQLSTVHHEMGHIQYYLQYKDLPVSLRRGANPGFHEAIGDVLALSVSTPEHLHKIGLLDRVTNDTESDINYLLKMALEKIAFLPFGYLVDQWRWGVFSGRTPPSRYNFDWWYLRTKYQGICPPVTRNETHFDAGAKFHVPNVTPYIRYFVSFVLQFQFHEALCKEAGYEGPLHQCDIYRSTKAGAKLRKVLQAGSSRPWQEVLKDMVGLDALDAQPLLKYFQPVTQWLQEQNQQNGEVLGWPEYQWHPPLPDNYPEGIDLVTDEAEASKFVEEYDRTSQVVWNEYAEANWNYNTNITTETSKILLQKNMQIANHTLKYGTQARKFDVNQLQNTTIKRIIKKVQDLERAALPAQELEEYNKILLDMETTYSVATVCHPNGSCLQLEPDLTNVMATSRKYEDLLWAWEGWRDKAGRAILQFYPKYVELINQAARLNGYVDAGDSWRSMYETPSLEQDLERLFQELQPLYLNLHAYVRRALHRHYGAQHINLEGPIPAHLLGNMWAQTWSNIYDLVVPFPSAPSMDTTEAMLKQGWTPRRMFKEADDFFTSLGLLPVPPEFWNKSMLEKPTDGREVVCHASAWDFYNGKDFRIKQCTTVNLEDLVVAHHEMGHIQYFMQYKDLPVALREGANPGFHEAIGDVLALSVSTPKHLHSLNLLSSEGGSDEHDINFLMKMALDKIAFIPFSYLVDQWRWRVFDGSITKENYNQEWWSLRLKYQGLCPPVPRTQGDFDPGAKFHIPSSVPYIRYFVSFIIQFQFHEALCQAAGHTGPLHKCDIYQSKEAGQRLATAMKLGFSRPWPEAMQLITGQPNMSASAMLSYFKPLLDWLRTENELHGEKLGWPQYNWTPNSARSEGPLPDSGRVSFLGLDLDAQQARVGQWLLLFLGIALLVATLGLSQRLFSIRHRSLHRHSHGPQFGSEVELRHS
enképhalinase, sequence (P08473 whole entry, species assumed): as the sequence (P08473 whole entry) above
enképhalinase (Homo sapiens, UniProt P08473), sequence (P08473 whole entry, species assumed): as the sequence (P08473 whole entry) above

CC(=O)SCC(Cc1ccccc1)C(=O)NCC(=O)OCc1ccccc1 (racemic) [acétorphan]
% d'amélioration après acétorphan 100 mg X 3, Ballonnement ([1]; 1 mois (420 sujets)): 60%
% d'amélioration après acétorphan 100 mg X 3, Douleur ([1]; 1 mois (420 sujets)): 70%
% d'amélioration après acétorphan 100 mg X 3, Troubles du transit ([1]; 1 mois (420 sujets)): 50%
% d'amélioration après acétorphan 100 mg X 3, Ballonnement ([1]; 2 mois (115 sujets)): 80%
% d'amélioration après acétorphan 100 mg X 3, Douleur ([1]; 2 mois (115 sujets)): 84,3%
% d'amélioration après acétorphan 100 mg X 3, Troubles du transit ([1]; 2 mois (115 sujets)): 81,5%
% d'amélioration après acétorphan 100 mg X 3, Ballonnement ([1]; 3 mois (40 sujets)): 90%
% d'amélioration après acétorphan 100 mg X 3, Douleur ([1]; 3 mois (40 sujets)): 87,5%
% d'amélioration après acétorphan 100 mg X 3, Troubles du transit ([1]; 3 mois (40 sujets)): 94%
sujets constipés au stade 3 ([1]; after one month of treatment): 0,9%
sujets diarrhéiques présentant une diarrhée objective et importante (d'intensité 2 et 3) ([1]; after one month of treatment, 20 % before treatment): 2,4%
sujets constipés souffrant de constipation importante (stades 2 et 3) ([1]; after one month of treatment, 32 % before treatment): 12,7%

CC(=O)SC[C@H](Cc1ccccc1)C(=O)NCC(=O)OCc1ccccc1 [[R], [R] acétorphan]
activité inhibitrice de l'A.C.E. (A.C.E.): dénué d'effet sur l'A.C.E.
Activité enképhalinase plasmatique T3O' [2]: 40,0 pmol/ml/min
Activité enképhalinase plasmatique T1h [2]: 32,4* pmol/ml/min
Activité enképhalinase plasmatique T8h [2]: 46,1 pmol/ml/min
Activité enképhalinase plasmatique TO [2]: 52,3 pmol/ml/min
durée d'action [2, 6]: plus courte que le dérivé [S] et le mélange [R] + [S]
effet maximum [Cmax] [2, 6]: plus faible
Index moteur (évalué par jauge de contrainte) Avant repas (-2-0 h) (motricité colique; 10 mg/kg per os): 5.7 ± 0.8
Index moteur (évalué par jauge de contrainte) Après repas (2 - 10 h) (motricité colique; 10 mg/kg per os, * p < 0.01 vs control): 15.2 ± 2.4
IC50 (enképhalinase [3]): 1.7 nM
durée d'action vis-à-vis de l'enképhalinase (enképhalinase [4]): environ trois fois moins longue que celle de l'isomère [S]
effet maximal (enképhalinase [4]; enkephalinase inhibition): moins intense

CC(=O)SC[C@@H](Cc1ccccc1)C(=O)NCC(=O)OCc1ccccc1 [[S], [S] acétorphan]
effet antihypertenseur [5]: effet antihypertenseur, démontré chez l'homme
activité inhibitrice de l'A.C.E. (A.C.E.): résidant essentiellement dans l'isomère [S]
Activité enképhalinase plasmatique T3O' [2]: 28,4* pmol/ml/min
Activité enképhalinase plasmatique T1h [2]: 21,7* pmol/ml/min
Activité enképhalinase plasmatique T8h [2]: 37* pmol/ml/min
Activité enképhalinase plasmatique TO [2]: 53,3 pmol/ml/min
Index moteur (évalué par jauge de contrainte) Avant repas (-2-0 h) (motricité colique; 5 mg/kg per os): 6.3 ± 1
IC50 (enképhalinase [3]): 2.2 nM
